Marks after values point to notes of the source that are not given here.
Legend:
ICR mice = test: in vivo; settings: female ICR mice; single-dose ip
Experimental: This experiment was to investigate the toxic effects of single-dose intraperitoneal administration on ICR mice and determine the maximum tolerated dose (MTD) of each subject. Maximum tolerated dose (MTD) refers to the dose that may not cause an animal to die, may not cause the animal to suffer weight loss exceeding 10% (compared with Day 0), or may not produce significant side effects.
(§1) The corresponding amount of test substance was taken in a 5 mL glass tube and dissolved in ethanol with a 5 mm magnetic stirrer for stirring. After dissolving completely, Cremophor EL was added with continuous stirring. The marked amount of saline was added and mixed evenly before use. The volume ratio of ethanol, Cremophor EL, and physiological saline was 5:5:90.
Varieties and lines: ICR mice; level: SPF; sex: female.
Method of administration: ip. The dose was reduced in case of animal death, till an animal survived; the dose was increased in case of no animal death; the test was ended when the animals survived normally at the given high dose. Finally, the MTD of the mice on the test substances was determined according to the test results. The animals were observed continuously for 7 days after acute administration.
During the experiment, all animals were under detailed and continuous clinical observation for […], twice a day (10:00 am, 16:00 pm) after administration. The observation included but not limited to: skin, hair, ear, nose, mouth, chest, abdomen, external genitalia, limbs and feet, respiratory and circulatory system, autonomic effects (such as salivation), nervous system (such as tremor, convulsions, stress response and abnormal behavior).
The body of animals was weighed before administration, and then weighed and recorded at the same time each day.
The observation results, animal body weight, and animal survival after one week of administration were recorded in detail every day.

[1] = Experimental: To determine the growth inhibition effect and toxicity of the cytidine derivative samples of the present invention on the transplanted tumor of nude mice bearing colon cancer HCT-116.
as §1
Varieties and lines; Balb/c Nude mice; level: SPF; sex: female.
4.2 Animal inoculation and grouping: Each nude mouse was inoculated subcutaneously with 0.1 mL of cell suspension (3×10^6 cell/mouse) at right side of hind limb in a sterile stale. When the tumor grew to about 60-150 mm^3, the nude mice with similar tumor volume and desirable shape were selected (it would be better to select single spherical shape, no irregular shape or multiple tumors grouped together) for grouping, 6 mice a group. The grouping is as follows:
The control group, namely the model control group, was injected with a mixture of ethanol, Cremophor EL, and saline (5:5:90).
Those mice were weighed three times a week.
All clinical symptoms of each animal should be recorded at the beginning of the test and during the test. The observations should be made at the same time each day.
An animal would be killed by CO2 when its weight loss was more than 20%, when it was about to die, or when its tumor volume exceeded 2800 mm^3. The tumor was separated and weighed, and the animal was autopsied and observed to evaluate and record whether there were pathological changes in the organs.
The data were expressed as Mean±SEM unless specially provided; Non-pairing T test was performed for the data between the two groups. P<0.05 was considered as significant difference.

[2] = test system: HCT-116 colon cancer xenografts; test: Tumor growth inhibition of HCT-116 colon cancer xenografts in tumor-bearing nude mice (tumor volume, TGI %, RTV, T/C %); type: in vivo, Balb/c Nude mice
Experimental: 4.1 Tumor cells: colon cancer HCT-116 cells, purchased from the Institute of Cell Biology, Chinese Academy of Sciences. The cells were incubated by F-12 medium (containing 10% FBS) in carbon dioxide incubator at 37° C. and in saturated humidity, with 5% CO2 and 95% air in volume fraction. Before inoculation, the cells at logarithmic phase were taken, and digested with 0.25% trypsin, washed once with PBS and resuspended in PBS for counting. The cells were resuspended in serum-free medium and adjusted to about 3×10^7 cell/mL.
The grouping is as follows:
The formations of tumor at the inoculation site of each group of nude mice were observed. The diameter of tumor nodule (D) was measured three times a week with round hole ruler, and the volume of tumor nodule (V) was calculated according to the following formula: […].
Anti-tumor activity was evaluated by tumor growth inhibition rate TGI (%) and relative tumor proliferation rate T/C (%).
The relative tumor volume (RTV) was calculated as: RTV=Vt/V0, where V0 was the tumor volume when they were grouped and administered, and Vt was the tumor volume at the time of measurement.
The relative proliferation rate T/C (%) was calculated as: […].
TRTV: RTV of the treatment group; CRTV: RTV of the control group.
P<0.05 was considered as significant difference.

[3] = Day 0, G3-G9 groups, single IP dose, Mean±SEM
[4] = Day 4, G3-G9 groups, single IP dose, Mean±SEM
[5] = Day 6, G3-G9 groups, single IP dose, Mean±SEM
[6] = Day 8, G3-G9 groups, single IP dose, Mean±SEM
[7] = Day 11, G3-G9 groups, single IP dose, Mean±SEM
[8] = Day 13, G3-G9 groups, single IP dose, Mean±SEM
[9] = Day 15, G3-G9 groups, single IP dose, Mean±SEM
[10] = Day 18, G3-G9 groups, single IP dose, Mean±SEM
[11] = Day 20, G3-G9 groups, single IP dose, Mean±SEM
[12] = Day 22, G3-G9 groups, single IP dose, Mean±SEM

O=C(Nc1ccn([C@@H]2O[C@H](CO)[C@@H](O)C2(F)F)c(=O)n1)OCc1ccccc1 [Compound G4, 4-N-(carboxybenzyl)-2′-deoxy-2′,2′-difluorocytidine]
dose that could be tolerated (maximum tolerated dose, MTD) (ICR mice): 350 mg/kg | Weight change rate, Day 0 [1, 3]: 0.00 ± 0.00% | Weight of mice, Day 0 [1, 3]: 20.20 ± 0.55 g | weights of animals on Day 4 after administration ([1]; Day 4 (G7: Day 4 and Day 6), p<0.05): significantly reduced | Weight change rate, Day 4 [1, 4]: −10.91 ± 3.45 % | Weight of mice, Day 4 [1, 4]: 18.22 ± 1.19 g | weight loss rate on Day 4 after administration ([1]; Day 4, G4 350 mg/kg, G5 325 mg/kg, G7 250 mg/kg, single IP): 10.91±3.45% | animals died on Day 4 after administration ([1]; Day 4, G4 350 mg/kg, G8 350 mg/kg, G6 300 mg/kg, single IP, 6 mice a group): 1 | Weight change rate, Day 6 [1, 5]: −1.87 ± 2.96% | Weight of mice, Day 6 [1, 5]: 20.06 ± 1.18 g | Weight change rate, Day 8 [1, 6]: 0.30 ± 1.84% | Weight of mice, Day 8 [1, 6]: 20.48 ± 0.97 g | Weight change rate, Day 11 [1, 7]: 3.85 ± 5.08% | Weight of mice, Day 11 [1, 7]: 21.08 ± 0.76 g | Weight change rate, Day 13 [1, 8]: 7.64 ± 4.55% | Weight of mice, Day 13 [1, 8]: 21.86 ± 0.67 g | Weight change rate, Day 15 [1, 9]: 8.84 ± 4.33% | Weight of mice, Day 15 [1, 9]: 22.10 ± 0.57 g | Weight change rate, Day 18 [1, 10]: 9.28 ± 3.53 % | Weight of mice, Day 18 [1, 10]: 22.20 ± 0.43 g | Weight change rate, Day 20 [1, 11]: 10.50 ± 4.03 % | Weight of mice, Day 20 [1, 11]: 22.44 ± 0.49 g | Weight change rate, Day 22 [1, 12]: 11.39 ± 4.05% | Weight of mice, Day 22 [1, 12]: 22.62 ± 0.49 g | Day 22 Mortality ([1]; Day 22, single IP dose (mg/kg)): 17% | body weight compared with model control group ([1]; G4 Day 18 to Day 20 (p<0.05), G5 Day 13 to Day 20 (p<0.05~0.01)): significantly increased | clinical symptoms ([1]; after single IP dose, compared with model control group): 3 animals had less activity, loss of body weight, and body surface temperature lower than normal | Day 0 (RTV) [2, 3]: 1.00 ± 0.00 | Tumor volume, Day 0 [2, 3]: 63.44 ± 18.74** mm^3 | Day 4 (TGI %) ([2]; Day 4, G3-G9 groups, single IP dose): 83.29% | Day 4 (RTV) [2, 4]: 0.70 ± 0.13 | Tumor volume, Day 4 [2, 4]: 44.53 ± 13.75** mm^3 | Day 6 (TGI %) ([2]; Day 6, G3-G9 groups, single IP dose): 89.82% | Day 6 (RTV) [2, 5]: 0.68 ± 0.10 | Tumor volume, Day 6 [2, 5]: 43.04 ± 10.69** mm^3 | Day 8 (TGI %) ([2]; Day 8, G3-G9 groups, single IP dose): 91.66% | Day 8 (RTV) [2, 6]: 0.69 ± 0.13 | Tumor volume, Day 8 [2, 6]: 43.83 ± 12.73** mm^3 | tumor inhibition effect ([2]; Day 8 to Day 13 after single-dose intraperitoneal administration): good tumor inhibition effect | Day 11 (TGI %) ([2]; Day 11, G3-G9 groups, single IP dose): 92.58% | Day 11 (RTV) [2, 7]: 1.12 ± 0.29 | Tumor volume, Day 11 [2, 7]: 59.68 ± 11.72** mm^3 | Day 13 (TGI %) ([2]; Day 13, G3-G9 groups, single IP dose): 92.57% | Day 13 (RTV) [2, 8]: 1.51 ± 0.39 | Tumor volume, Day 13 [2, 8]: 86.22 ± 24.86** mm^3 | Day 15 (TGI %) ([2]; Day 15, G3-G9 groups, single IP dose): 90.04% | Day 15 (RTV) [2, 9]: 2.80 ± 0.97 | Tumor volume, Day 15 [2, 9]: 140.70 ± 34.22** mm^3 | Day 18 (TGI %) ([2]; Day 18, G3-G9 groups, single IP dose): 85.93% | Day 18 (RTV) [2, 10]: 5.36 ± 1.82 | Tumor volume, Day 18 [2, 10]: 260.52 ± 51.15** mm^3 | Day 20 (TGI %) ([2]; Day 20, G3-G9 groups, single IP dose): 78.95% | Day 20 (RTV) [2, 11]: 9.65 ± 3.23 | Tumor volume, Day 20 [2, 11]: 446.16 ± 65.85** mm^3 | Day 22 (TGI %) ([2]; Day 22, G3-G9 groups, single IP dose): 75.68% | Day 22 (RTV) [2, 12]: 14.66 ± 5.30 | Tumor volume, Day 22 [2, 12]: 636.07 ± 78.89** mm^3 | T/C % on Day 22 ([2]; Day 22, G4 350 mg/kg, G5 325 mg/kg, G7 250 mg/kg, single IP): 75.38% | relative tumor volume compared with the model control group ([2]; G4 and G5 Day 4 to Day 18, G7 Day 4 to Day 15 (p<0.05-0.01), G9 only Day 4 (p<0.05)): reduced significantly | maximum value of TGI % ([2]; day of maximum: G3 Day 8, G4 Day 11, G5 Day 11, G9 Day 4, G7 Day 8, single IP): 92.58% | minimum value of T/C % ([2]; day of minimum: G4 Day 13, G5 Day 11, G7 Day 8, single IP): 17.62%

From patent US10174067B2, “Type of cytidine derivative and application thereof” (priority 2014, dated 2019)
